The values below come from US20230138563A1, “METHODS FOR QUANTIFICATION OF COMPOUNDS IN CULTIVARS OF Cannabis sp” (MEDLEAF BIOTECHNOLOGIES AND GLOBAL RESEARCH AND D[…]., priority 2020, published 2023).

For series [1], the system named is U87 human glioma cells. Particulars: mouse, in vivo; cited from earlier work.
Series [2] concerns U-87 MG glioma cell. In words: single-cell microfluidic intracellular calcium bioassay (Fluo-4 fluorescence). The settings on record: for [Ca^2+]i: single U-87 MG cell, calculated from fluorescence by eq. 1. Here is the method: The current study was designed to investigate the pharmacological potential of CBD on calcium uptake in U87MG glioma cells by a method using a single-cell microfluidic approach.
The glass chip was fabricated through the standard micromachining processes at Canadian Microelectronic Corporation (CMC) by a process that includes standard chip cleaning, thin film deposition, photolithography, photoresist development, hydrofluoric acid wet etching, reservoir forming, and chip bonding, as previously reported (Li et al. 2005). The chip design is shown in FIG. 9, consisting of three reservoirs, three channels and one chamber containing the cell retention structure to isolate the single cell. Reservoir 1 was used for cell introduction and washing, reservoir 2 was used for reagent delivery, and reservoir 3 was a waste reservoir. The channel was 40 μm deep, while the reservoirs were 600 μm deep and 2.5 mm in diameter.
A fluorescent calcium probe, Fluo-4 AM ester (50 μg, special packaging, Molecular Probes, Eugene, Oreg.) was first dissolved in 50 μL of dimethyl sulfoxide (DMSO, 99.9%, Sigma-Aldrich, St. Louis, Mo.) to make a stock solution of 1 μg/μL. Before use, it was freshly diluted in Hanks' balanced salt solution (HBSS, Invitrogen Corp., Grand Island, N.Y.) to make a 5.0 μM working solution. Due to light sensitivity of Fluo-4 AM, it must be stored in the dark at −20° C. Cannabidiol (CBD) was purchased from Cerilliant Corporation (Round Rock, Tex.) as drug enforcement agency-exempt solution, i.e. 1 mg/mL solution in methanol (MeOH). Trypan blue solutions (4%) were purchased from Sigma-Aldrich (St. Louis, Mo.). RPMI 1640 medium solution, trypsin-ethylenediaminetetraacetic acid (Trypsin-EDTA) (0.025%), penicillin-streptomycin and fetal bovine serum (FBS) were obtained from Life Technologies (Grand Island, N.Y.). lonomycin (Calcium salt, Sigma Chemical Co.) was used to saturate the Ca^2+-Fluo-4 fluorescence within the cells. Ionomycin was dissolved in DMSO to make the stock solution which was finally diluted in HBSS containing 1 mM CaCl2 to make working solutions. The glioma cells (U-87 MG) were obtained from ATCC (Manassas, Va.). The cells were maintained in the RPMI medium with 10% fetal bovine serum and 1% penicillin in a 5% CO2 atmosphere at 37° C. and were passaged twice a week.
An optical imaging and fluorescent measurement system was used, as previously described (Li et al., 2009). Briefly, an inverted microscope (TE300, Nikon, Mississauga, ON, Canada) was connected to a video camera (JVC, TK-C3180). A TV set was used for optical observation (FIG. 2). By using a dichroic filter (620 nm), only red light entered the video camera for cell imaging without interfering with the fluorescent measurement. The green fluorescent emission (535 nm) was achieved under the Xenon arc lamp excitation (480 nm) selected by the microphotometer system (PTI) through a detection aperture. The chip was translated back and forth manually so the cellular fluorescence or background signal could be measured.
Before running any experiment, the microfluidic chip was cleaned by soap solution (2 times), rinsed with deionized water (3 to 5 times), and sterilized with 75% ethanol (1 time). After the cleaning step, […] of a cell suspension was introduced into the cell inlet from reservoir 1, the cells flowed from the left to right across the cell retention structure. By adjusting the liquid levels of the right […] (waste) and the left reservoir 1 (cell inlet), a desired U-87 MG cell was slowed down near the entrance of the cell retention structure. As the glioma cell is adherent, it readily becomes stationary to maintain its location in the retention structure. The glioma cell was allowed to settle for about 15 minutes, during which it was attached to the glass chip surface before the fluorescence measurement started.

In series [3] the test system is U373 human glioma cell line. Particulars: cited from earlier work.
Series [4] deals with U87 human glioma cells. Particulars: in vitro, dose-dependently, 0.01 up to 9 μM; cited from earlier work.
Series [5] has as its system U87 human glioma cell line. The settings on record: cited from earlier work.
For series [6] the following is noted: read-out: Kd (dissociation constant of the dye); cited from earlier work.

Molecules are shown by their SMILES.

On to `C=C(C)[C@@H]1CCC(C)=C[C@H]1c1c(O)cc(CCCCC)cc1O` [CBD, cannabidiol], for which the “viability of U87 human glioma cells in mice” value in series [1] was “prohibited”. Also, the “change of [Ca^2+]i (FIG. 10)” value is “increased slightly” in series [2] (9.5 μM CBD) and “significantly increased” in series [2] (19 μM CBD compared to 9.5 μM). Besides, the “concentration dependence of intracellular [Ca^2+]i increase” value in series [2] (CBD 9.5 and 19 μM) is reported as “concentration-dependent manner”. In addition, the “cell viability by trypan blue at end of experiment” value in series [2] (after 9.5 and 19 μM CBD and ionomycin) was “not dead”. For the same compound, the entries for the “[Ca^2+]i” value in series [2] (after 9.5 μM CBD) and in series [2] (after 19 μM CBD) were 47.9 nM and 913 nM, respectively. Further, the antiproliferative effect entry in series [3] and in series [5] (U87) was “antiproliferative effects” throughout. For the same compound, the “translocation of U87 human glioma cells” value in series [4] is “inhibited”. Also, the mitochondrial oxidative metabolism entry in series [5] (CBD exposure to cells) is reported as “reduced”.
What is called Kd is the constant that tells how readily two partners part at equilibrium. For the compound `Cc1ccc(N(CC(=O)O)CC(=O)O)c(OCCOc2cc(-c3c4cc(F)c(=O)cc-4oc4cc(O)c(F)cc34)ccc2N(CC(=O)O)CC(=O)O)c1` [Fluo-4], the dissociation constant Kd in series [6] was 350 nM.
Turning to `C[C@H](CCC(=O)O)C[C@H](C)C[C@H](C)C(=O)/C=C(\O)[C@H](C)C[C@H](C)C/C=C/[C@@H](C)[C@@H](O)[C@@H](C)[C@@H](O)C[C@@H]1CC[C@@](C)([C@H]2CC[C@@](C)([C@@H](C)O)O2)O1` [ionomycin, Ionomycin], in series [2] (10 μM ionomycin, at ~6000 s), the “fluorescence response after ionomycin (Fmax)” value is given as “obvious fluorescence peak”.
For the compound `C=CC(=C)CCC=C(C)C` [myrcene], the cell calcium response result in series [2] (10 μM, data not shown) was “not detectable”. The “cell calcium response (FIG. 11)” value in series [2] (20 μM, alone) is “a little cell calcium response”.
